For this assay, the target named is T1, BTK-WT (Homo sapiens, UniProt Q06187).
T1 construct: purified from insect cells as a full-length construct containing an N-terminal 6X-His tag; His6 (N); made in house; host or cells: insect cells (baculovirus Sf21 in Method B)
The experiment in a line: Btk in vitro inhibitory activity (one of Method A TR-FRET, Method B electrophoretic mobility shift, Method C radiometric filter binding). In kind it is biochemical. As to conditions: D-compounds panel data; read-out: IC50 BTK-WT. (In EMSA bound probe runs differently from free probe, usually more slowly.)

Data on 27 molecules can be found in patent US20210070748A1, “INHIBITORS OF BRUTONS TYROSINE KINASE” (Pharmacyclics LLC, priority 2015, published 2021).

SMILES strings stand for the structures.

T1 sequence (Q06187 whole entry): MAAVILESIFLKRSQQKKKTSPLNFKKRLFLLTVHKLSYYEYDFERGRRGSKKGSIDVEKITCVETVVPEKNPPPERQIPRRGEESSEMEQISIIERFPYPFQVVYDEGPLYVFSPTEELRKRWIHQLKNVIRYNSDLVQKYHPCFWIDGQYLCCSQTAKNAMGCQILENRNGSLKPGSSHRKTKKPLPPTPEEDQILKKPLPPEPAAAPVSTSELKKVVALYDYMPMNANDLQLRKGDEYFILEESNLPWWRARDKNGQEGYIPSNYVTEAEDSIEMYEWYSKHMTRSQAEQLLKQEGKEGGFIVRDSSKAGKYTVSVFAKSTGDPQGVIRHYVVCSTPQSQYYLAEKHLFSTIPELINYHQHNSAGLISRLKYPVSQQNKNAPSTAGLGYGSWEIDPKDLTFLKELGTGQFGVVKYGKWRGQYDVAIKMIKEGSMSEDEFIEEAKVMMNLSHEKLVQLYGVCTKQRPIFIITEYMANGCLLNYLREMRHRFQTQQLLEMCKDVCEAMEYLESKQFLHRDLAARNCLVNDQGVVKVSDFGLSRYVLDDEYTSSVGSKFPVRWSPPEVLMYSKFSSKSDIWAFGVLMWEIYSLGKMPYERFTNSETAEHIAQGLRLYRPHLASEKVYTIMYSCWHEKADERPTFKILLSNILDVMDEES

Consider `COCCN(C)c1ccc(C(=O)N[C@@H]2CCCN(c3cnc(C(N)=O)c(Nc4cnn(C)c4)n3)[C@@H]2C)cc1` [Example D-248, 5-[(2R,3R)-3-{4-[(2-methoxyethyl)(methyl)amino]benzamido}-2-methylpiperidin-1-yl]-3-[(1-methyl-1H-pyrazol-4-yl)amino]pyrazine-2-carboxamide], for which the IC50 (in general, the concentration that gives 50% inhibition) is no more than 10 nM. As for `C[C@@H]1[C@H](NC(=O)c2ccc(C3CC3)cc2)CCCN1c1cnc(C(N)=O)c(Nc2cnn(CC#N)c2)n1` [Example D-287, 3-{[1-(cyanomethyl)-1H-pyrazol-4-yl]amino}-5-[(2R,3R)-3-(4-cyclopropylbenzamido)-2-methylpiperidin-1-yl]pyrazine-2-carboxamide], the figure is no more than 10 nM; as for `C[C@@H]1[C@H](NC(=O)c2ccc(C3CC3)cc2)CCCN1c1cnc(C(N)=O)c(Nc2cc(C3CCN(C)CC3)ns2)n1` [Example D-312, 5-[(2R,3R)-3-(4-cyclopropylbenzamido)-2-methylpiperidin-1-yl]-3-{[3-(1-methylpiperidin-4-yl)-1,2-thiazol-5-yl]amino}pyrazine-2-carboxamide], no more than 10 nM. As for `C[C@@H]1[C@H](NC(=O)c2ccc(C3CC3)cc2)CCCN1c1nnc(C(N)=O)c(Nc2cnn(C)c2)n1` [Example D-277, 3-[(2R,3R)-3-(4-cyclopropylbenzamido)-2-methylpiperidin-1-yl]-5-[(1-methyl-1H-pyrazol-4-yl)amino]-1,2,4-triazine-6-carboxamide], the figure is no more than 10 nM; as for `C[C@@H]1[C@H](NC(=O)c2ccc(C3CC3)cn2)CCCN1c1cnc(C(N)=O)c(Nc2cnn(C)c2)n1` [Example D-21, 5-[(2R,3R)-3-(5-cyclopropylpyridine-2-amido)-2-methylpiperidin-1-yl]-3-[(1-methyl-1H-pyrazol-4-yl)amino]pyrazine-2-carboxamide], no more than 10 nM; as for `C[C@@H]1[C@H](NC(=O)c2ccc3nccn3c2)CCCN1c1cnc(C(N)=O)c(Nc2cnn(C)c2)n1` [Example D-266, 5-[(2R,3R)-3-(imidazo[1,2-a]pyridine-6-amido)-2-methylpiperidin-1-yl]-3-[(1-methyl-1H-pyrazol-4-yl)amino]pyrazine-2-carboxamide], no more than 10 nM. As for `C[C@@H]1[C@H](NC(=O)c2ccc(C3CC3)cc2)CCCN1c1cnc(C(N)=O)c(Nc2cnn(C3CCN(CC(F)(F)F)CC3)c2)n1` [Example D-293, 5-[(2R,3R)-3-(4-cyclopropylbenzamido)-2-methylpiperidin-1-yl]-3-({1-[1-(2,2,2-trifluoroethyl)piperidin-4-yl]-1H-pyrazol-4-yl}amino)pyrazine-2-carboxamide], the figure is no more than 10 nM; as for `C[C@@H]1[C@H](NC(=O)N(C)C2CC2)CCCN1c1cnc(C(N)=O)c(Nc2cnn(C)c2)n1` [Example D-314, 5-[(2R,3R)-3-{[cyclopropyl(methyl)carbamoyl]amino}-2-methylpiperidin-1-yl]-3-[(1-methyl-1H-pyrazol-4-yl)amino]pyrazine-2-carboxamide], no more than 10 nM; as for `Cc1cc2cc(C(=O)N[C@@H]3CCCN(c4cnc(C(N)=O)c(Nc5cnn(C)c5)n4)[C@@H]3C)ccc2o1` [Example D-246, 3-[(1-methyl-1H-pyrazol-4-yl)amino]-5-[(2R,3R)-2-methyl-3-(2-methyl-1-benzofuran-5-amido)piperidin-1-yl]pyrazine-2-carboxamide], no more than 10 nM.

With `C[C@@H]1[C@H](NC(=O)c2ccc(C(C)(C)C#N)cc2)CCCN1c1cnc(C(N)=O)c(Nc2ccc(OC3CCN(C)CC3)cc2)n1` [Example D-292, 5-[(2R,3R)-3-[4-(1-cyano-1-methylethyl)benzamido]-2-methylpiperidin-1-yl]-3-({4-[(1-methylpiperidin-4-yl)oxy]phenyl}amino)pyrazine-2-carboxamide], the concentration for half-maximal inhibition (IC50) is no more than 10 nM.

As for `C[C@@H]1[C@H](NC(=O)c2ccc(C3CC3)nc2)CCCN1c1cnc(C(N)=O)c(Nc2ccc(N3CCC(F)(F)CC3)cc2)n1` [Example D-305, 5-[(2R,3R)-3-(6-cyclopropylpyridine-3-amido)-2-methylpiperidin-1-yl]-3-{[4-(4,4-difluoropiperidin-1-yl)phenyl]amino}pyrazine-2-carboxamide], the IC50 is no more than 10 nM. The figure for `C[C@@H]1[C@H](NC(=O)c2ccc(C(C)(C)C)cc2)CCCN1c1nnc(C(N)=O)c(Nc2cnn(C)c2)n1` [Example D-285, 3-[(2R,3R)-3-(4-tert-butylbenzamido)-2-methylpiperidin-1-yl]-5-[(1-methyl-1H-pyrazol-4-yl)amino]-1,2,4-triazine-6-carboxamide] is no more than 10 nM; for `C[C@@H]1[C@H](NC(=O)c2ccc(C3CC3)cc2)CCCN1c1cnc(C(N)=O)c(Nc2cnn(C)c2F)n1` [Example D-290, 5-[(2R,3R)-3-(4-cyclopropylbenzamido)-2-methylpiperidin-1-yl]-3-[(5-fluoro-1-methyl-1H-pyrazol-4-yl)amino]pyrazine-2-carboxamide] it is 10 to 100 nM. As for `C[C@@H]1[C@H](NC(=O)c2ccc(C3CC3)cc2)CCCN1c1cnc(C(N)=O)c(Nc2cc(C3CCOCC3)ns2)n1` [Example D-310, 5-[(2R,3R)-3-(4-cyclopropylbenzamido)-2-methylpiperidin-1-yl]-3-{[3-(oxan-4-yl)-1,2-thiazol-5-yl]amino}pyrazine-2-carboxamide], the figure is no more than 10 nM; as for `Cc1nn(C)cc1Nc1nc(N2CCC[C@@H](NC(=O)c3ccc(C4CC4)cc3)[C@H]2C)cnc1C(N)=O` [Example D-272, 5-[(2R,3R)-3-(4-cyclopropylbenzamido)-2-methylpiperidin-1-yl]-3-[(1,3-dimethyl-1H-pyrazol-4-yl)amino]pyrazine-2-carboxamide], 10 to 100 nM. As for `C[C@@H]1[C@H](NC(=O)c2ccc(C3CC3)cc2)CCCN1c1cnc(C(N)=O)c(Nc2cn(C)nc2C(F)(F)F)n1` [Example D-278, 5-[(2R,3R)-3-(4-cyclopropylbenzamido)-2-methylpiperidin-1-yl]-3-{[1-methyl-3-(trifluoromethyl)-1H-pyrazol-4-yl]amino}pyrazine-2-carboxamide], the figure is greater than 10000 nM; as for `C[C@@H]1[C@H](NC(=O)c2ccc(C3CC3)nc2)CCCN1c1cnc(C(N)=O)c(Nc2ccc(OC3CCN(C)CC3)cc2)n1` [Example D-294, 5-[(2R,3R)-3-(6-cyclopropylpyridine-3-amido)-2-methylpiperidin-1-yl]-3-({4-[(1-methylpiperidin-4-yl)oxy]phenyl}amino)pyrazine-2-carboxamide], no more than 10 nM; as for `C[C@@H]1[C@H](NC(=O)c2ccc(C3CC3)cc2)CCCN1c1cnc(C(N)=O)c(Nc2cc(C3CCN(C4CCCC4)CC3)ns2)n1` [Example D-311, 3-{[3-(1-cyclopentylpiperidin-4-yl)-1,2-thiazol-5-yl]amino}-5-[(2R,3R)-3-(4-cyclopropylbenzamido)-2-methylpiperidin-1-yl]pyrazine-2-carboxamide], no more than 10 nM. For `C[C@@H]1[C@H](NC(=O)N(C)C)CCCN1c1nnc(C(N)=O)c(Nc2cnn(C)c2)n1` [Example D-286, 3-[(2R,3R)-3-[(dimethylcarbamoyl)amino]-2-methylpiperidin-1-yl]-5-[(1-methyl-1H-pyrazol-4-yl)amino]-1,2,4-triazine-6-carboxamide], the 50% inhibitory concentration (IC50) is no more than 10 nM. As for `C[C@@H]1[C@H](NC(=O)c2ccc(C(C)(O)CO)cc2)CCCN1c1cnc(C(N)=O)c(Nc2cnn(C)c2)n1` (single isomer, unassigned) [Example D-265], the figure is no more than 10 nM.

With `C[C@@H]1[C@H](NC(=O)c2ccc3nn(C)cc3c2)CCCN1c1cnc(C(N)=O)c(Nc2cnn(C)c2)n1` [Example D-267, N-[(2R,3R)-1-{5-carbamoyl-6-[(1-methyl-1H-pyrazol-4-yl)amino]pyrazin-2-yl}-2-methylpiperidin-3-yl]-2-methyl-2H-indazole-5-carboxamide], the IC50 was no more than 10 nM. The figure for `C[C@@H]1[C@H](NC(=O)c2ccc(C3CC3)cc2)CCCN1c1cnc(C(N)=O)c(Nc2cnn(C3CCN(C(=O)C4(C)COC4)CC3)c2)n1` [Example D-289, 5-[(2R,3R)-3-(4-cyclopropylbenzamido)-2-methylpiperidin-1-yl]-3-({1-[1-(3-methyloxetane-3-carbonyl)piperidin-4-yl]-1H-pyrazol-4-yl}amino)pyrazine-2-carboxamide] is no more than 10 nM. The figure for `C[C@@H]1[C@H](NC(=O)c2ccc(C(O)C(F)(F)F)cc2)CCCN1c1cnc(C(N)=O)c(Nc2cnn(C)c2)n1` (single isomer, unassigned) [Example D-249] is no more than 10 nM. The figure for `C[C@@H]1[C@H](NC(=O)c2ccc3cnn(C)c3c2)CCCN1c1cnc(C(N)=O)c(Nc2cnn(C)c2)n1` [Example D-259, N-[(2R,3R)-1-{5-carbamoyl-6-[(1-methyl-1H-pyrazol-4-yl)amino]pyrazin-2-yl}-2-methylpiperidin-3-yl]-1-methyl-1H-indazole-6-carboxamide] is no more than 10 nM. For the molecule `C[C@@H]1[C@H](NC(=O)c2ccc(C3(CO)CC3)cc2)CCCN1c1cnc(C(N)=O)c(Nc2cnn(C)c2)n1` [Example D-260, 5-[(2R,3R)-3-{4-[1-(hydroxymethyl)cyclopropyl]benzamido}-2-methylpiperidin-1-yl]-3-[(1-methyl-1H-pyrazol-4-yl)amino]pyrazine-2-carboxamide], the IC50 is no more than 10 nM. The figure for `Cc1c(Nc2nc(N3CCC[C@@H](NC(=O)c4ccc(C5CC5)cc4)[C@H]3C)cnc2C(N)=O)cnn1C` [Example D-271, 5-[(2R,3R)-3-(4-cyclopropylbenzamido)-2-methylpiperidin-1-yl]-3-[(1,5-dimethyl-1H-pyrazol-4-yl)amino]pyrazine-2-carboxamide] is 10 to 100 nM; for `C[C@@H]1[C@H](NC(=O)c2ccc(C3CC3)cc2)CCCN1c1cnc(C(N)=O)c(Nc2cnn(C3CCOCC3)c2)n1` [Example D-274, 5-[(2R,3R)-3-(4-cyclopropylbenzamido)-2-methylpiperidin-1-yl]-3-{[1-(oxan-4-yl)-1H-pyrazol-4-yl]amino}pyrazine-2-carboxamide] it is no more than 10 nM.
